From patent publication US20230371512A1, “FUNGICIDAL COMPOSITIONS” (SYNGENTA CROP PROTECTION AG, priority 2020, published 2023) come the findings set out here.

SMILES strings stand for the structures.

The test system of assay [1] is Mycosphaerella arachidis Syn. Cercospora arachidicola. The assay can be described thus: Mycosphaerella arachidis liquid culture growth inhibition (microtiter plate, PDB, photometric). The format is cell-based. As to conditions: read-out: Observed Activity (%); for inhibition at 10 ppm: single compound 10 ppm; for inhibition at 20 ppm: single compound 20 ppm; for inhibition at 0.625 ppm: single compound 0.625 ppm; for inhibition at 1.25 ppm: single compound 1.25 ppm; for inhibition at 2.5 ppm: single compound 2.5 ppm; for inhibition at 5 ppm: single compound 5 ppm. The method, then:
Mycosphaerella arachidis Syn. Cercospora arachidicola (Brown Leaf Spot of Peanut): Conidia of the fungus from cryogenic storage were directly mixed into nutrient broth (PDB potato dextrose broth). A DMSO solution of the test compounds was placed into a microtiter plate (96-well format) and the nutrient broth containing the fungal spores was added to it. The test plates were incubated at 24° C. and the inhibition of growth was determined photometrically after 5-6 days at 620 nm.

The next assay relates to Phakopsora pachyrhizi. Put plainly: Phakopsora pachyrhizi soybean rust, treated plants / leaf disk test. It counts as in vivo. As to conditions: foliar, read-out: Observed Activity (%); for inhibition at 15 g/ha: single compound 15 g/ha. The method, then:
Phakopsora pachyrhizi (Soybean Rust):
Whole soybean plants are treated with the recited active ingredients 4 weeks after planting. 1 day after spraying leaf disks are cut from the first trifoliate leaf. Five repetitions at each rate are conducted. The leaf disks are inoculated with Phakopsora pachyrhizi (Asian soybean rust) one day after treatment. Evaluation of the leaf disks is conducted 11 to 14 days after inoculation and the activity is derived from the relation of the treated vs untreated, infested check. The rates of the active ingredients used are given in Table as g active ingredient (a.i.)/ha.

The subject of a further assay is Septoria Glycines. Put plainly: Septoria glycines liquid culture growth inhibition (microtiter plate, PDB, visual). The format is cell-based. As to conditions: read-out: Observed Activity (%). As to the method: Septoria Glycines (Brown Spot): Conidia of the fungus from cryogenic storage were directly mixed into nutrient broth (PDB potato dextrose broth). A DMSO solution of the test compounds was placed into a microtiter plate (96-well format) and the nutrient broth containing the fungal spores was added to it.

A further assay has as its system Septoria tritici. Put plainly: Septoria tritici liquid culture growth inhibition (microtiter plate, PDB, photometric). It counts as cell-based. Particulars: Zymoseptoria tritici, read-out: Observed Activity (%). The method, then:
Septoria tritici (Leaf Blotch): Conidia of the fungus from cryogenic storage were directly mixed into nutrient broth (PDB potato dextrose broth). A DMSO solution of the test compounds was placed into a microtiter plate (96-well format) and the nutrient broth containing the fungal spores was added to it.

On to `CNC(=O)C(F)(F)c1ccc(-c2noc(C(F)(F)F)n2)cc1` [2,2-difluoro-N-methyl-2-[4-[5-(trifluoromethyl)-1,2,4-oxadiazol-3-yl]phenyl]acetamide], for which, in assay [1], the inhibition at 10 ppm worked out at 20% and the inhibition at 20 ppm came out at 50%.
For the molecule `Cc1cc(C2=NC(C)(C)C(F)(F)c3ccccc32)cnc1C` [Compound A-1.1, 1-(5,6-dimethyl-3-pyridyl)-4,4-difluoro-3,3-dimethyl-isoquinoline], the inhibition at 0.625 ppm in assay [1] is 0%. In addition, the inhibition at 1.25 ppm (in assay [1]; in the assay with Septoria tritici (single compound 1.25 ppm)) was 0% in each case. Moreover, the inhibition at 2.5 ppm (in assay [1]; in the assay with Septoria tritici (single compound 2.5 ppm)) was 0% each time. The inhibition at 5 ppm came to 0% in assay [1], 0% in the assay with Septoria Glycines (single compound 5 ppm) and 20% with Septoria tritici (single compound 5 ppm). The values for the inhibition at 10 ppm (in assay [1]; in the assay with Septoria Glycines (single compound 10 ppm); in the assay with Septoria tritici (single compound 10 ppm)) were 0%, 20% and 50%, respectively. For the same molecule, the inhibition at 20 ppm in assay [1] worked out at 20%; in the assay with Septoria Glycines (single compound 20 ppm), 50%; with Septoria tritici (single compound 20 ppm), 70%. Besides, the inhibition at 15 g/ha in the assay on Phakopsora pachyrhizi stood at 2%. In addition, the inhibition at 30 g/ha in the assay on Phakopsora pachyrhizi (single compound 30 g/ha) amounted to 4%.
On to `N#Cc1ccc(Oc2ccc(C(F)(F)C(O)(Cn3nc[nH]c3=S)c3ccc(F)cc3F)nc2)cc1` (stereo not drawn) [4-[[6-[2-(2,4-Difluorophenyl)-1,1-difluoro-2-hydroxy-3-(5-thioxo-4H-1,2,4-triazol-1-yl)propyl]-3-pyridyl]oxy]benzonitrile], for which the inhibition at 0.25 ppm in the assay with Septoria Glycines (single compound 0.25 ppm) came out at 20%. For the same molecule, in the assay with Septoria Glycines (single compound 0.5 ppm), the inhibition at 0.5 ppm amounted to 20%.
With `CNC(=S)c1ccc(-c2noc(C(F)(F)F)n2)cc1` [N-methyl-4-[5-(trifluoromethyl)-1,2,4-oxadiazol-3-yl]benzenecarbothioamide], the inhibition at 3 ppm in assay [1] (single compound 3 ppm) came to 70%. Also, the inhibition at 6 ppm in assay [1] (single compound 6 ppm) is 90%; in the assay with Septoria tritici (single compound 6 ppm), 50%.
Regarding `O=C(Nc1ccccc1F)c1ccc(-c2noc(C(F)(F)F)n2)cc1` [N-(2-fluorophenyl)-4-[5-(trifluoromethyl)-1,2,4-oxadiazol-3-yl]benzamide], the inhibition at 0.75 g/ha in the assay with Phakopsora pachyrhizi (single compound 0.75 g/ha) is 27%. For the same molecule, in the assay with Phakopsora pachyrhizi (single compound 1.5 g/ha), the inhibition at 1.5 g/ha was found to be 45%.
Regarding `CCN(C)C=Nc1cc(C)c(Oc2ccccc2F)cc1Cl` [N′-[2-chloro-4-(2-fluorophenoxy)-5-methyl-phenyl]-N-ethyl-N-methyl-formamidine], in assay [1] (single compound 1 ppm), the inhibition at 1 ppm is 70%. Besides, the inhibition at 2 ppm in assay [1] (single compound 2 ppm) came out at 90%. Also, the inhibition at 1 g/ha in the assay on Phakopsora pachyrhizi (single compound 1 g/ha) was 4%. Moreover, the inhibition at 2 g/ha with Phakopsora pachyrhizi (single compound 2 g/ha) amounted to 13%.
With `Cc1cc(C2=NC(C)(C)C(F)(F)c3ccccc32)cnc1C(F)F` [Compound A-1.2, 1-[6-(difluoromethyl)-5-methyl-3-pyridyl]-4,4-difluoro-3,3-dimethyl-isoquinoline], in assay [1], the inhibition at 0.625 ppm stood at 0%, the inhibition at 1.25 ppm is 0%, the inhibition at 2.5 ppm was determined as 0% and the inhibition at 5 ppm amounted to 0%. In addition, in assay [1], the inhibition at 10 ppm stood at 20% and the inhibition at 20 ppm came to 50%. The inhibition at 15 g/ha with Phakopsora pachyrhizi was 12%.
